The target of this assay is T1, Full-length glucokinase (beta cell isoform) (Homo sapiens, UniProt P35557).
T1 construct: Full-length glucokinase (beta cell isoform) was His-tagged at N-terminus; His tag (N); made in house
T1 sequence (P35557 1-465): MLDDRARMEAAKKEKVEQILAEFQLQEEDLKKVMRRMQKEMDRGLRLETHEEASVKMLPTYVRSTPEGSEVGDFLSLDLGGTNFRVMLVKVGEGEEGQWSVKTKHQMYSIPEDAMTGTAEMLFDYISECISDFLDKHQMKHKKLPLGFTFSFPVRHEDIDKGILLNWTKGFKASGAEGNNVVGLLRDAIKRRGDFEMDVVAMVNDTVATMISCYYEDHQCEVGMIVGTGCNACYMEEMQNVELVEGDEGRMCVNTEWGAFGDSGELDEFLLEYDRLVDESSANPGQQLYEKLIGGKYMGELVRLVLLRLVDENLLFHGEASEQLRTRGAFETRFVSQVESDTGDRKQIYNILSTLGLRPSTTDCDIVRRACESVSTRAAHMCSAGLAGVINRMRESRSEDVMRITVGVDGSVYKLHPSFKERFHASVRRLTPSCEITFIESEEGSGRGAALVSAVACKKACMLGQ
Put plainly: Glucokinase biochemical assay (PK/LDH-coupled, NADH depletion at 340 nm): % activation, EC50, % max activation. Particulars: 5 mM glucose, 1 mM ATP; for EC50 / activation at 10 µM: room temperature; for EC50: read-out: EC50; for activation at 10 µM: compound at 10 uM, read-out: % Activation at 10 uM; for Emax: fitted maximum activation, read-out: % Max Activation. In a few lines: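 N-terminally His-tagged full-length human beta-cell glucokinase, room temperature, 5 mM glucose, 1 mM ATP, PK/LDH-coupled with 0.7 mM NADH, 1% DMSO final. Initial velocity from the 200–900 s slope of A340 decline. % activation = (Va/Vo−1)×100, measured across compound concentrations.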

Each structure is given as a SMILES string.

The EC50 is the midpoint of the concentration-response curve. With `Cn1ccc(NC(=O)c2cc(Oc3cnc(C(=O)N4CCC4)cn3)c3c(c2)OC(C)(C)C3)n1` [Example 396, 4-[5-(Azetidine-1-carbonyl)-pyrazin-2-yloxy]-2,2-dimethyl-2,3-dihydro-benzofuran-6-carboxylic acid(1-methyl-1H-pyrazol-3-yl)-amide], the 50% effective concentration (EC50) is 360 nM, the activation at 10 µM came out at 204% and the Emax was found to be 212%.

Take `Cn1ccc(NC(=O)c2cc(Oc3ccc(C(=O)N4CC(F)C4)nc3)c3c(c2)OC(C)(C)C3)n1` [Example 397, 4-[6-(3-Fluoro-azetidine-1-carbonyl)-pyridin-3-yloxy]-2,2-dimethyl-2,3-dihydro-benzofuran-6-carboxylic acid(1-methyl-1H-pyrazol-3-yl)-amide]: the EC50 amounted to 83 nM, the activation at 10 µM is 213% and the Emax worked out at 202%.

Take `Cn1ccc(NC(=O)c2cc(Oc3ccc(C(=O)N4CCCC4)nc3)c3c(c2)OC(C)(C)C3)n1` [Example 398, 2,2-Dimethyl-4-[6-(pyrrolidine-1-carbonyl)-pyridin-3-yloxy]-2,3-dihydro-benzofuran-6-carboxylic acid(1-methyl-1H-pyrazol-3-yl)-amide]: the concentration giving a half-maximal response (EC50) came out at 56 nM, the activation at 10 µM was determined as 128% and the Emax was found to be 114%.

In the case of `CN(CC#N)C(=O)c1ccc(Oc2cc(C(=O)Nc3ccn(C)n3)cc3c2CC(C)(C)O3)cn1` [Example 399, 5-[2,2-Dimethyl-6-(1-methyl-1H-pyrazol-3-ylcarbamoyl)-2,3-dihydro-benzofuran-4-yloxy]-pyridine-2-carboxylic acid cyanomethyl-methyl-amide], the concentration giving a half-maximal response (EC50) came out at 610 nM, the activation at 10 µM was determined as 212% and the Emax is 231%.

Take `CNC(=O)c1c(F)cc(Oc2cc(C(=O)Nc3ccn(C)n3)cc3c2CC(C)(C)O3)cc1F` [Example 400, 4-(3,5-Difluoro-4-methylcarbamoyl-phenoxy)-2,2-dimethyl-2,3-dihydro-benzofuran-6-carboxylic acid(1-methyl-1H-pyrazol-3-yl)-amide]: the concentration for a half-maximal effect (EC50) was 140 nM, the activation at 10 µM turned out to be 192% and the Emax is 177%.

For the molecule `Cn1ccc(NC(=O)c2cc(Oc3cnc(C(=O)N4CC(F)C4)c(F)c3)c3c(c2)OC(C)(C)C3)n1` [Example 403, 4-(5-fluoro-6-(3-fluoroazetidine-1-carbonyl)pyridin-3-yloxy)-2,2-dimethyl-N-(1-methyl-1H-pyrazol-3-yl)-2,3-dihydrobenzofuran-6-carboxamide], the half-maximal effective concentration (EC50) is 121 nM, the activation at 10 µM was determined as 196% and the Emax was 191%.

For the origin of these results see patent US8119624B2, “Fused phenyl amido heterocyclic compounds” (Pfizer Inc., priority 2006, dated 2012).
